Experimental data as given in US8362204B2 (priority 2006, dated 2013).
Values joined by “and” are separate entries in the source; they are usually repeats but may differ in a detail not shown here. Equal values may be shown once.

Target: T1, neuronal-type nicotinic receptors (Bos taurus, UniProt Q07263+Q8SPU6)
T1 construct: monolayer cultures of bovine adrenal chromaffin cells; endogenous in cells; host or cells: bovine adrenal chromaffin cells (primary monolayer cultures)
Assay type: cell-based, Bovine

T1 sequence (Q07263 22-495): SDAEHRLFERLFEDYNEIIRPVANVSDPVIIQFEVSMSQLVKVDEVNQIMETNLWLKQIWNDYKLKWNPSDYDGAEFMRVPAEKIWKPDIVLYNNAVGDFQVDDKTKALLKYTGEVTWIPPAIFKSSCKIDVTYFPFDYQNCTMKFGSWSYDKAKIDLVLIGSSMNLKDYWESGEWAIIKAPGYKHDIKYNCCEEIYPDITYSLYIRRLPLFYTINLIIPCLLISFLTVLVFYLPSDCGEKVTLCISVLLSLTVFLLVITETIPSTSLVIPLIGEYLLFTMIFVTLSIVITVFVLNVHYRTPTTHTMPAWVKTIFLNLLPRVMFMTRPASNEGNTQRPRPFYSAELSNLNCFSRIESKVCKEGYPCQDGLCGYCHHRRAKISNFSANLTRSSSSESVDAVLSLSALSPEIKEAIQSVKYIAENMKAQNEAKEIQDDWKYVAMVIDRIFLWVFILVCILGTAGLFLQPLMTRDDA
T1 sequence (Q8SPU6 20-496): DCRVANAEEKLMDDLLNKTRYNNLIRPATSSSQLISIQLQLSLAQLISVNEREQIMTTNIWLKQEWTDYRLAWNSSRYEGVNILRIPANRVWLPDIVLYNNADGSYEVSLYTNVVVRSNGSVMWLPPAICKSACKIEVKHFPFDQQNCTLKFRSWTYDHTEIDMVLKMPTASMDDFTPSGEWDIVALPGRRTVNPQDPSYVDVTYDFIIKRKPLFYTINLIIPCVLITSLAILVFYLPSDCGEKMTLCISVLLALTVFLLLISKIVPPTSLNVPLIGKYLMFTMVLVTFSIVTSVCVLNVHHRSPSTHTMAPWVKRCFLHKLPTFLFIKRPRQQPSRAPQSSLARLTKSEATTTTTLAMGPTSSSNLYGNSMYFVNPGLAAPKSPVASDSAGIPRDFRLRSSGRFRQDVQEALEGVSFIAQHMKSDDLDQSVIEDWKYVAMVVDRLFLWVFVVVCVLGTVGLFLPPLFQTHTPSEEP

CN1CCCC1c1cccnc1 (centres unmarked) [NICOTINE, nicotine, reference compound]
Adrenaline Release, 1st-4th (individual wells): 4.31% and 4.52% (2×) and 4.48%
Adrenaline Release, mean: 4.46%
Noradrenaline Release, 1st-4th (individual wells): 6.62% and 6.89% (2×) and 6.99%
Noradrenaline Release, mean: 6.85%
noradrenaline released, basal release (0.72%) subtracted: 6.13%
